Patent publication US6358885B1, “Substituted phenylheterocyclic herbicides” (Mississippi State University, priority 1992, dated 2002)

How the values were obtained:
ryegrass = experiment: Test C preemergence/postemergence greenhouse plant response rating 0 to 100; format: in vivo, Lolium multiflorum; settings: for Plant response rating Ryegrass: 125 g/ha, 0 to 100 scale
Summary of the method: (§1)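 Compounds in non-phytotoxic solvent applied preemergence to sandy loam one day after planting, postemergence at the 1–4 leaf stage, or to ~2.5 cm floodwater over silt loam.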

barley [1] = experiment: as above; format: in vivo, Hordeum vulgare; settings: for Plant response rating Barley Igri: 125 g/ha, 0 to 100 scale
Summary of the method: as §1

rape = experiment: Test B preemergence/postemergence greenhouse plant response rating 0 to 10; format: in vivo, Brassica napus; settings: 0 to 10 scale
Summary of the method: (§2)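 Both application timings were run together: seeds got compound preemergence, and established seedlings (two to eighteen cm) got it postemergence. Non-phytotoxic solvent carried the chemical. Ratings are visual, versus controls, at twelve to sixteen days.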

blackgrass [2] = experiment: Test C preemergence/postemergence greenhouse plant response rating 0 to 100; format: in vivo, Alopecurus myosuroides; settings: for Plant response rating, Blackgrass: 125 g/ha, 0 to 100 scale
Summary of the method: as §1

cheatgrass = experiment: Test B preemergence/postemergence greenhouse plant response rating 0 to 10; format: in vivo, Bromus secalinus; settings: 0 to 10 scale
Summary of the method: as §2

bedstraw [3] = experiment: as above; format: in vivo, Galium aparine; settings: 0 to 10 scale
Summary of the method: as §2

bedstraw [4] = experiment: Test C preemergence/postemergence greenhouse plant response rating 0 to 100; format: in vivo, Galium aparine; settings: for Plant response rating, Bedstraw: 125 g/ha, 0 to 100 scale
Summary of the method: as §1

wild buckwheat = experiment: as above; format: in vivo, Polygonum convolvulus; settings: for Plant response rating, Wild buckwheat: 125 g/ha, 0 to 100 scale
Summary of the method: as §1

duck salad = experiment: Test C flood test plant response rating 0 to 100; format: in vivo, Heteranthera limosa
Summary of the method: as §1

wheat = experiment: Test B preemergence/postemergence greenhouse plant response rating 0 to 10; format: in vivo, Triticum aestivum; settings: 0 to 10 scale
Summary of the method: as §2

pigweed = experiment: Test C preemergence/postemergence greenhouse plant response rating 0 to 100; format: in vivo, Amaranthusretroflexus; settings: for Plant response rating Pigweed: 125 g/ha, 0 to 100 scale
Summary of the method: as §1

sorghum [5] = experiment: as above; format: in vivo, Sorghum bicolor; settings: for Plant response rating, Sorghum: 125 g/ha, 0 to 100 scale
Summary of the method: as §1

rice = experiment: Test B preemergence/postemergence greenhouse plant response rating 0 to 10; format: in vivo, Oryza sativa; settings: 0 to 10 scale
Summary of the method: as §2

blackgrass [6] = experiment: as above; format: in vivo, Alopecurus myosuroides; settings: 0 to 10 scale
Summary of the method: as §2

barley [7] = experiment: as above; format: in vivo, Hordeum vulgare; settings: 0 to 10 scale
Summary of the method: as §2

sorghum [8] = experiment: as above; format: in vivo, Sorghum bicolor; settings: 0 to 10 scale
Summary of the method: as §2

cotton = experiment: as above; format: in vivo, Gossypium hirsutum; settings: 0 to 10 scale
Summary of the method: as §2

sugar beet = experiment: Test C preemergence/postemergence greenhouse plant response rating 0 to 100; format: in vivo, Beta vulgaris; settings: for Plant response rating, Sugar beet: 125 g/ha, 0 to 100 scale
Summary of the method: as §1

Compound: Fc1cc(Cl)ccc1-c1nn2c(c1Br)CCCC2 [Compound 52]
- Plant response rating Ryegrass (ryegrass; POSTEMERGENCE): 60
- Plant response rating (0 to 100), Ryegrass (ryegrass; POSTEMERGENCE, Rate 2 g/ha): 10
- Plant response rating Ryegrass (ryegrass; PREEMERGENCE): 50
- Plant response rating (0 to 100), Ryegrass (ryegrass; PREEMERGENCE, Rate 2 g/ha): 0
- Plant response rating (0 to 100), Ryegrass (ryegrass; Rate 8 g/ha, POSTEMERGENCE): 20
- Plant response rating (0 to 100), Ryegrass (ryegrass; Rate 8 g/ha, PREEMERGENCE): 0
- Plant response rating (0 to 100), Ryegrass (ryegrass; Rate 31 g/ha, POSTEMERGENCE): 40
- Plant response rating (0 to 100), Ryegrass (ryegrass; Rate 31 g/ha, PREEMERGENCE): 10
- Plant response rating Barley Igri (barley [1]; POSTEMERGENCE): 50
- Plant response rating (0 to 100), Barley Igri (barley [1]; POSTEMERGENCE, Rate 2 g/ha): 10
- Plant response rating Barley Igri (barley [1]; PREEMERGENCE): 10
- Plant response rating (0 to 100), Barley Igri (barley [1]; PREEMERGENCE, Rate 2 g/ha): 0
- Plant response rating (0 to 100), Barley Igri (barley [1]; Rate 8 g/ha, POSTEMERGENCE): 20
- Plant response rating (0 to 100), Barley Igri (barley [1]; Rate 8 g/ha, PREEMERGENCE): 0
- Plant response rating (0 to 100), Barley Igri (barley [1]; Rate 31 g/ha, POSTEMERGENCE): 40
- Plant response rating (0 to 100), Barley Igri (barley [1]; Rate 31 g/ha, PREEMERGENCE): 0
- Plant response rating, Rape (rape; POSTEMERGENCE, Rate 50 g/ha): 8
- Plant response rating, Rape (rape; PREEMERGENCE, Rate 50 g/ha): 1
- Plant response rating, Rape (rape; Rate 200 g/ha, POSTEMERGENCE): 10
- Plant response rating, Rape (rape; Rate 200 g/ha, PREEMERGENCE): 9
- Plant response rating, Blackgrass (blackgrass [2]; POSTEMERGENCE): 60
- Plant response rating (0 to 100), Blackgrass (blackgrass [2]; POSTEMERGENCE, Rate 2 g/ha): 10
- Plant response rating, Blackgrass (blackgrass [2]; PREEMERGENCE): 50
- Plant response rating (0 to 100), Blackgrass (blackgrass [2]; PREEMERGENCE, Rate 2 g/ha): 0
- Plant response rating (0 to 100), Blackgrass (blackgrass [2]; Rate 8 g/ha, POSTEMERGENCE): 20
- Plant response rating (0 to 100), Blackgrass (blackgrass [2]; Rate 8 g/ha, PREEMERGENCE): 0
- Plant response rating (0 to 100), Blackgrass (blackgrass [2]; Rate 31 g/ha, POSTEMERGENCE): 40
- Plant response rating (0 to 100), Blackgrass (blackgrass [2]; Rate 31 g/ha, PREEMERGENCE): 0
- Plant response rating, Cheatgrass (cheatgrass; POSTEMERGENCE, Rate 50 g/ha): 4
- Plant response rating, Cheatgrass (cheatgrass; POSTEMERGENCE, Rate 200 g/ha): 7
- Plant response rating, Cheatgrass (cheatgrass; PREEMERGENCE, Rate 50 g/ha): 6
- Plant response rating, Cheatgrass (cheatgrass; Rate 200 g/ha, PREEMERGENCE): 10
- Plant response rating, Bedstraw (bedstraw [3]; POSTEMERGENCE, Rate 50 g/ha): 10
- Plant response rating, Bedstraw (bedstraw [3]; POSTEMERGENCE, Rate 200 g/ha): 10
- Plant response rating, Bedstraw (bedstraw [3]; PREEMERGENCE, Rate 50 g/ha): 5
- Plant response rating, Bedstraw (bedstraw [3]; Rate 200 g/ha, PREEMERGENCE): 7
- Plant response rating, Bedstraw (bedstraw [4]; POSTEMERGENCE): 100
- Plant response rating (0 to 100), Bedstraw (bedstraw [4]; POSTEMERGENCE, Rate 2 g/ha): 50
- Plant response rating, Bedstraw (bedstraw [4]; PREEMERGENCE): 80
- Plant response rating (0 to 100), Bedstraw (bedstraw [4]; PREEMERGENCE, Rate 2 g/ha): 0
- Plant response rating (0 to 100), Bedstraw (bedstraw [4]; Rate 8 g/ha, POSTEMERGENCE): 70
- Plant response rating (0 to 100), Bedstraw (bedstraw [4]; Rate 8 g/ha, PREEMERGENCE): 0
- Plant response rating (0 to 100), Bedstraw (bedstraw [4]; Rate 31 g/ha, POSTEMERGENCE): 70
- Plant response rating (0 to 100), Bedstraw (bedstraw [4]; Rate 31 g/ha, PREEMERGENCE): 10
- Plant response rating, Wild buckwheat (wild buckwheat; POSTEMERGENCE): 100
- Plant response rating, Wild buckwheat (wild buckwheat; PREEMERGENCE): 100
- Plant response rating (0 to 100), Wild buckwheat (wild buckwheat; PREEMERGENCE, Rate 2 g/ha): 0
- Plant response rating (0 to 100), Wild buckwheat (wild buckwheat; Rate 8 g/ha, POSTEMERGENCE): 40
- Plant response rating (0 to 100), Wild buckwheat (wild buckwheat; Rate 8 g/ha, PREEMERGENCE): 0
- Plant response rating (0 to 100), Wild buckwheat (wild buckwheat; Rate 31 g/ha, POSTEMERGENCE): 80
- Plant response rating (0 to 100), Wild buckwheat (wild buckwheat; Rate 31 g/ha, PREEMERGENCE): 10
- Plant response rating (0 to 100), Duck salad (duck salad; POSTEMERGENCE section, flood test, Rate 2 g/ha): 0
- Plant response rating (0 to 100), Duck salad (duck salad; Rate 8 g/ha, under POSTEMERGENCE head (flood test species)): 0
- Plant response rating (0 to 100), Duck salad (duck salad; Rate 31 g/ha, under POSTEMERGENCE head (flood test species)): 20
- Plant response rating Duck salad (duck salad; flood test species listed under POSTEMERGENCE, 125 g/ha, 0 to 100 scale): 85
- Plant response rating, Wheat (wheat; POSTEMERGENCE, Rate 50 g/ha): 4
- Plant response rating, Wheat (wheat; PREEMERGENCE, Rate 50 g/ha): 4
- Plant response rating, Wheat (wheat; Rate 200 g/ha, POSTEMERGENCE): 8
- Plant response rating, Wheat (wheat; Rate 200 g/ha, PREEMERGENCE): 7
- Plant response rating Pigweed (pigweed; POSTEMERGENCE): 100
- Plant response rating (0 to 100), Pigweed (pigweed; POSTEMERGENCE, Rate 2 g/ha): 20
- Plant response rating Pigweed (pigweed; PREEMERGENCE): 100
- Plant response rating (0 to 100), Pigweed (pigweed; PREEMERGENCE, Rate 2 g/ha): 0
- Plant response rating (0 to 100), Pigweed (pigweed; Rate 8 g/ha, POSTEMERGENCE): 50
- Plant response rating (0 to 100), Pigweed (pigweed; Rate 8 g/ha, PREEMERGENCE): 50
- Plant response rating (0 to 100), Pigweed (pigweed; Rate 31 g/ha, POSTEMERGENCE): 50
- Plant response rating (0 to 100), Pigweed (pigweed; Rate 31 g/ha, PREEMERGENCE): 100
- Plant response rating, Sorghum (sorghum [5]; POSTEMERGENCE): 60
- Plant response rating (0 to 100), Sorghum (sorghum [5]; POSTEMERGENCE, Rate 2 g/ha): 30
- Plant response rating, Sorghum (sorghum [5]; PREEMERGENCE): 10
- Plant response rating (0 to 100), Sorghum (sorghum [5]; PREEMERGENCE, Rate 2 g/ha): 0
- Plant response rating (0 to 100), Sorghum (sorghum [5]; Rate 8 g/ha, POSTEMERGENCE): 40
- Plant response rating (0 to 100), Sorghum (sorghum [5]; Rate 8 g/ha, PREEMERGENCE): 0
- Plant response rating (0 to 100), Sorghum (sorghum [5]; Rate 31 g/ha, POSTEMERGENCE): 50
- Plant response rating (0 to 100), Sorghum (sorghum [5]; Rate 31 g/ha, PREEMERGENCE): 0
- Plant response rating, Rice (rice; POSTEMERGENCE, Rate 50 g/ha): 4
- Plant response rating, Rice (rice; PREEMERGENCE, Rate 50 g/ha): 0
- Plant response rating, Rice (rice; Rate 200 g/ha, POSTEMERGENCE): 6
- Plant response rating, Rice (rice; Rate 200 g/ha, PREEMERGENCE): 1
- Plant response rating, Blackgrass (blackgrass [6]; POSTEMERGENCE, Rate 50 g/ha): 4
- Plant response rating, Blackgrass (blackgrass [6]; POSTEMERGENCE, Rate 200 g/ha): 5
- Plant response rating, Blackgrass (blackgrass [6]; PREEMERGENCE, Rate 50 g/ha): 4
- Plant response rating, Blackgrass (blackgrass [6]; Rate 200 g/ha, PREEMERGENCE): 6
- Plant response rating, Barley (barley [7]; POSTEMERGENCE, Rate 50 g/ha): 5
- Plant response rating, Barley (barley [7]; POSTEMERGENCE, Rate 200 g/ha): 7
- Plant response rating, Barley (barley [7]; PREEMERGENCE, Rate 50 g/ha): 2
- Plant response rating, Barley (barley [7]; Rate 200 g/ha, PREEMERGENCE): 3
- Plant response rating, Sorghum (sorghum [8]; POSTEMERGENCE, Rate 50 g/ha): 4
- Plant response rating, Sorghum (sorghum [8]; PREEMERGENCE, Rate 50 g/ha): 2
- Plant response rating, Sorghum (sorghum [8]; Rate 200 g/ha, POSTEMERGENCE): 7
- Plant response rating, Sorghum (sorghum [8]; Rate 200 g/ha, PREEMERGENCE): 3
- Plant response rating, Cotton (cotton; POSTEMERGENCE, Rate 50 g/ha): 10
- Plant response rating, Cotton (cotton; POSTEMERGENCE, Rate 200 g/ha): 10
- Plant response rating, Cotton (cotton; PREEMERGENCE, Rate 50 g/ha): 0
- Plant response rating, Cotton (cotton; Rate 200 g/ha, PREEMERGENCE): 3
- Plant response rating, Sugar beet (sugar beet; POSTEMERGENCE): 100
- Plant response rating (0 to 100), Sugar beet (sugar beet; POSTEMERGENCE, Rate 2 g/ha): 70
- Plant response rating, Sugar beet (sugar beet; PREEMERGENCE): 100
- Plant response rating (0 to 100), Sugar beet (sugar beet; PREEMERGENCE, Rate 2 g/ha): 0
- Plant response rating (0 to 100), Sugar beet (sugar beet; Rate 8 g/ha, POSTEMERGENCE): 70
- Plant response rating (0 to 100), Sugar beet (sugar beet; Rate 8 g/ha, PREEMERGENCE): 0
- Plant response rating (0 to 100), Sugar beet (sugar beet; Rate 31 g/ha, POSTEMERGENCE): 100
- Plant response rating (0 to 100), Sugar beet (sugar beet; Rate 31 g/ha, PREEMERGENCE): 70
